Consider ten molecules from patent US10647680B2, “Urea compound, preparation method therefor and medical use thereof” (Ancureall Pharmaceutical (Shanghai) Co., Ltd., priority 2016, dated 2020).

In experiment [1] the test system is RS4; 11 (FLT3 wild type). In words: In vitro growth inhibition (GI50), RS4; 11. The format is cell-based, human. Particulars: for GI50: Homo sapiens; for GI50 value, RS4; 11 (in words) / inhibitory effect on RS4; 11: FLT3 wild type high-expressing cells RS4; for inhibitory effect on RS4; 11: 11, under high concentrations.
Experiment [2] concerns Calu-3 (HER2/ErbB2 amp). In words: In vitro growth inhibition (GI50), Calu-3. The format is cell-based. The following applies: Homo sapiens. The text has this: Tumor cell line is an effective cell model for studying the inhibition of tumor cell growth or proliferation in vitro. In the present invention, a representative tumor cell line was selected to determine the cell growth inhibition activity of the present compound. All cell lines used were from ATCC, DSMZ, and the Cell Bank of the Chinese Academy of Sciences. Cell culture conditions and methods were in accordance with the requirements of each cell line. Cells were subcultured in vitro for no more than 3 passages each time, and as required, single-clone purification and identification of cell lines could be carried out.
The cell culture media used were RPMI1640 (Gibco), MEM (Gibco), McCOY'S5A (Gibco), and IMDM (Gibco). The complete medium was prepared by supplement with 5˜20% fetal calf serum (Gibco), 1% double-antibiotics (10000 units/mL penicillin and 10000 units/mL), 2 mM glutamine or 1 mM sodium pyruvate, respectively.
Human gastric cancer cell line NCI-N87 (HER2/ErbB2 amp, ATCC), human breast cancer cell line HCC1954 (HER2/ErbB2 amp, ATCC) and ZR-75-30 (HER2/ErbB2 amp, ATCC), human adenocarcinoma cell line AU565 (HER2/ErbB2 amp, ATCC), human lung squamous cell carcinoma cell line NCI-H2170 (HER2/ErbB2 amp, ATCC), human bronchioalveolar adenocarcinoma cell line NCI-H1781 (HER2/ErbB2 Ins G776V,C mutant type, ATCC) were cultured with a 1×RPMI1640 complete medium (10% FBS), respectively. Human lung adenocarcinoma cell line Calu-3 (HER2/ErbB2 amp, ATCC) was cultured with 1×MEM, 10% FBS, 1% double antibody, 1% NEAA (Gibco), 2 mM glutamine and 1 mM sodium pyruvate. The human breast cancer cell line SK-BR-3 (HER2/ErbB2 amp, ATCC) was cultured with a McCOY'S5A complete medium (10% FBS).
Adherent cells were digested with 0.25% pancreatin-EDTA (Gibco). The suspension cells were collected by centrifugation. The supernatant was discarded and the cell pellet was resuspended and counted. Different cell concentrations (5˜10×10^4 cells/mL) were prepared according to the growth cycle of each cell line and then seeded on a 96-well plate (Corning), 100 μL/well. The cells were incubated overnight at 37° C., 5% CO2. The compounds were added to the cells on the second day with 2 wells in parallel. The final concentration of organic solvent shall not exceed 1%. The cells were continually incubated for 3 to 5 days, and then subjected to MTT assay.
The compound of the present invention and the control compound were dissolved in DMSO (Sigma) respectively, with the purity of more than 98%. The compound was stored in a concentration of 10 mM at −20° C. and diluted to 2- or 10-fold series prior to use.
Dojindo CCK8 reagent kit was used as MTT assay. THERMO […] FC meter was used as microplate reader.
For adherent cells, culture medium was removed and immediately replaced with the fresh prepared medium which contains 10% CCK8 reagent (100 μL/well). For the suspension cells, CCK8 was directly added to 10% of the final concentration. The cells were continually incubated for 1˜4 h. When a dark yellow color could be observed in the solvent control wells, the absorbance value at OD450 nm was measured and the cell growth rate was calculated according to the following formula: Cell Growth Rate (%)=100*(T−T0)/(C−T0) T=optical density of drug treatment cell well—optical density of blank control well; T0=optical density of cell well before drug treatment—optical density of blank control well; C=optical density of cell well of solvent control group—optical density of blank control well. The concentration value of 50% inhibition of cell growth (GI50) was calculated according to the drug concentration and cell growth rate curve. The experiment was independently repeated 1˜3 times, and subject to biological statistical analysis. 4. Experimental Results
Tumor cell growth inhibition test was performed by selecting representative compounds (compounds 4, 11, 12, 16, 27, 68, 71, 77, 79, 89 and 116 of the present invention). […]

In experiment [3] the test system is KG-1 (expressing FGFR1OP2-FGFR1 fusion protein). In words: In vitro growth inhibition (GI50), KG-1. It is filed as cell-based. Particulars: Homo sapiens; Cell lines of leukemia; read-out: GI 50 KG-1 FGFR1OP 2-FGFR1.
Setting [4] is: RS4-11, Cell lines of leukemia, read-out: GI 50 RS4: 11 FLT3 (WT).
Where [5] appears, read: FLT3 wild-type high expressing cell RS4, 11, Table 3, read-out: GI50 value, RS4, 11.
[6] abbreviates: RS4, 11, FLT3 WT, read-out: GI50.

Structures are written as SMILES. Read-outs that look alike come from different tables or passages of the source.

Consider `CC(C)(C)c1cc(NC(=O)Nc2ccc(-n3cnc4cc(O)ccc43)cc2)no1` [Compound 4, 1-(5-tert-butyl-isoxazol-3-yl)-3-[4-(5-hydroxy-benzimidazol-1-yl)-phenyl]-urea], for which the GI50 was 100 to 1000 nM in experiment [1] (setting [4]); 50 to 800 nM in experiment [1] (setting [5]); 234 nM in experiment [1] (setting [6]); > 2500 nM in experiment [2]; 100 to 1000 nM in experiment [3].
Take `CC(C)(C)c1cc(NC(=O)Nc2ccc(-n3cnc4cc(OCCO)ccc43)cc2)no1` [Compound 11, 1-(5-tert-butyl-isoxazol-3-yl)-3-{4-[5-(2-hydroxy-ethoxyl)-benzimidazol-1-yl]-phenyl]-urea]: the GI50 in experiment [1] (setting [4]) was 10 to 100 nM; in experiment [1] (setting [5]), 50 to 800 nM; in experiment [1] (setting [6]), 57.4 nM; in experiment [2] it was > 2500 nM; in experiment [3] it was > 1000 nM.
Regarding `CC(C)(C)c1cc(NC(=O)Nc2ccc(-n3cnc4cc(OCCN5CCOCC5)ccc43)cc2)no1` [Compound 16, 1-(5-tert-butyl-isoxazol-3-yl)-3-{4-[5-(2-morpholin-4-yl-ethoxyl)-benzimidazol-1-yl]-phenyl}-urea], in experiment [1] (11), the “GI50 value, RS4; 11 (in words)” value is “micromolar range”. The “inhibitory effect on RS4; 11” value in experiment [1] is listed as “no obvious inhibitory effect”. Also, the GI50 was > 1000 nM in experiment [1] (setting [4]), 1750 nM in experiment [1] (setting [6]), > 2500 nM in experiment [2] and > 1000 nM in experiment [3].
For `CC(C)(C)c1cc(NC(=O)Nc2ccc(-n3cnc4ccc(OCCN5CCOCC5)cc43)cc2)no1` [Compound 27, 1-(5-tert-butyl-isoxazol-3-yl)-3-{4-[6-(2morpholin-4-yl-ethoxyl)-benzimidazol-1-yl]-phenyl}-urea], in experiment [1] (11), the “GI50 value, RS4; 11 (in words)” value is listed as “micromolar range”. For the same molecule, the “inhibitory effect on RS4; 11” value in experiment [1] was “no obvious inhibitory effect”. Further, the GI50 in experiment [1] (setting [4]) was > 1000 nM; in experiment [1] (setting [6]), 2380 nM; in experiment [2], > 2500 nM; in experiment [3], 100 to 1000 nM.
As for `CC(C)(C)c1cc(NC(=O)Nc2ccc(-n3cnc4ccccc43)cc2)[nH]n1` [Compound 68, 1-(4-benzimidazol-1-yl-phenyl)-3-(5-tert-butyl-2H-pyrazol-3-yl)-urea], the “GI50 value, RS4; 11 (in words)” value in experiment [1] (11) is “micromolar range”. The “inhibitory effect on RS4; 11” value in experiment [1] was “no obvious inhibitory effect”. For the same molecule, the GI50 in experiment [1] (setting [4]) is > 1000 nM; in experiment [1] (setting [6]) it was 3500 nM; in experiment [2], > 2500 nM; in experiment [3], > 1000 nM.
For the molecule `COc1ccc2c(c1)ncn2-c1ccc(NC(=O)Nc2cc(C(C)(C)C)n[nH]2)cc1` [Compound 71, 1-(5-tert-butyl-2H-pyrazol-3-yl)-3-[4-(5-methoxyl-benzimidazol-1-yl)-phenyl]-urea], the “GI50 value, RS4; 11 (in words)” value in experiment [1] (11) is on record as “micromolar range”. Also, the “inhibitory effect on RS4; 11” value in experiment [1] is on record as “no obvious inhibitory effect”. The GI50 in experiment [1] (setting [4]) is > 1000 nM; in experiment [1] (setting [6]), 2750 nM; in experiment [2], > 2500 nM; in experiment [3], > 1000 nM.
For the molecule `COCCOc1ccc2c(c1)ncn2-c1ccc(NC(=O)Nc2cc(C(C)(C)C)n[nH]2)cc1` [Compound 77, 1-(5-tert-butyl-2H-pyrazol-3-yl)-3-{4-[5-(2-methoxyl-ethoxyl)-benzimidazol-1-yl]-phenyl}-urea], in experiment [1] (11), the “GI50 value, RS4; 11 (in words)” value is “micromolar range”. In experiment [1], the “inhibitory effect on RS4; 11” value is on record as “no obvious inhibitory effect”. The GI50 in experiment [1] (setting [4]) was > 1000 nM; in experiment [1] (setting [6]), 2490 nM; in experiment [2], > 2500 nM; in experiment [3] it was > 1000 nM.
For the molecule `CC(C)(C)c1cc(NC(=O)Nc2ccc(-n3cnc4cc(OCCO)ccc43)cc2)[nH]n1` [Compound 79, 1-(5-tert-butyl-2H-pyrazol-3-yl)-3-{4-[5-(2-hydroxy-ethoxyl)-benzimidazol-1-yl]-phenyl]urea], the GI50 was > 1000 nM in experiment [1] (setting [4]); 50 to 800 nM in experiment [1] (setting [5]); 768 nM in experiment [1] (setting [6]); > 2500 nM in experiment [2]; > 1000 nM in experiment [3].
As for `CC(C)(C)c1cc(NC(=O)Nc2ccc(-n3cnc4cc(OCCN5CCOCC5)ccc43)cc2)[nH]n1` [Compound 89, 1-(5-tert-butyl-2H-pyrazol-3-yl)-3-{4-[5-(2-morpholin-4-yl-ethoxyl)-benzimidazol-1-yl]-phenyl}-urea], the “GI50 value, RS4; 11 (in words)” value in experiment [1] (11) is listed as “micromolar range”. In addition, the “inhibitory effect on RS4; 11” value in experiment [1] is on record as “no obvious inhibitory effect”. Further, the GI50 in experiment [1] (setting [4]) is > 1000 nM; in experiment [1] (setting [6]), 2090 nM; in experiment [2], > 2500 nM; in experiment [3], > 1000 nM.
In the case of `CC(C)(C)c1cc(N)n(C(=O)Nc2ccc(-n3cnc4ccccc43)cc2)n1` [Compound 116, 5-amino-3-tert-butyl-pyrazol-1-carboxylic acid (4-benzimidazol-1-yl-phenyl)-amide], the “GI50 value, RS4; 11 (in words)” value in experiment [1] (11) is reported as “micromolar range”. In experiment [1], the “inhibitory effect on RS4; 11” value is reported as “no obvious inhibitory effect”. Moreover, the GI50 in experiment [1] (setting [4]) is > 1000 nM; in experiment [1] (setting [6]), 2100 nM; in experiment [2] it was > 2500 nM; in experiment [3], > 1000 nM.
